Values after ≈ are worked out from the molar mass of the structure shown.
How the values were obtained:
Plasmodium falciparum = experiment: Antiplasmodial activity against Plasmodium falciparum NF54 erythrocytic stages assessed as parasite growth inhibition preincubated overnight followed by [G-3H]hypoxanthine addition and measured after 24 hrs by liquid scintillation counting method; assay type: functional, organism-based
L6 = experiment: Cytotoxicity against rat L6 cells; assay type: cell-based
[1] = Selectivity index, ratio of IC50 for rat L6 cells to IC50 for Plasmodium falciparum NF54; assay type: toxicity; conditions: read-out: Ratio IC50
[2] = test system: Trypanosoma brucei rhodesiense; experiment: Trypanocidal activity against Trypanosoma brucei rhodesiense STIB900 trypomastigotes incubated for 72 hrs by Alamar blue assay; assay type: functional, organism-based; conditions: STIB900, 72 h
[3] = Selectivity index, ratio of IC50 for rat L6 cells to IC50 for Trypanosoma brucei rhodesiense STIB900 trypomastigotes; assay type: toxicity; conditions: read-out: Ratio IC50
[4] = test system: Mycolicibacterium smegmatis; experiment: Antimycobacterial activity against Mycobacterium smegmatis mc2 155 ATCC 700084 assessed as inhibition of visible growth of bacteria by MTT assay; assay type: functional
[5] = test system: Mycolicibacterium smegmatis; experiment: Antimycobacterial activity against Mycobacterium smegmatis mc2 155 ATCC 700084 assessed as fold reduction in EtBr MIC at half MIC concentration; assay type: functional

Structure (SMILES) | IC50 (Plasmodium falciparum; read-out: IC50) [nM] | IC50 (Plasmodium falciparum; read-out: pIC50 (converted)) [nM] | IC50 (L6) [nM] | selectivity ratio [1] | IC50 ([2]; read-out: IC50) [nM] | IC50 ([2]; read-out: pIC50 (converted)) [nM] | selectivity ratio [3] | MIC [4] [µg/mL] | fold change (FC) [5]
O=C1C=C(c2ccccc2)C(=O)c2ccccc21 | 11000 | 11000 | 19400 | 1.8 | 60 | 55 | 323 | 8 (≈ 34.2 µM) | 4
Cc1ccc(C2=CC(=O)c3ccccc3C2=O)cc1 | 3860 | 3890 | 7260 | 1.9 | 80 | 75.9 | 90.8 | 32 (≈ 129 µM) | 2
O=C1C=C(c2ccc(Cl)nc2)C(=O)c2ccccc21 | 70 | 66.1 | 32400 | 463 | 2200 | 2190 | 14.7 | 32 (≈ 119 µM) | 128
O=C1C=C(c2ccc(F)cc2)C(=O)c2ccccc21 | 1810 | 1820 | 9060 | 5 | 220 | 219 | 41.2 | 128 (≈ 507 µM) | >128
N#Cc1ccc(C2=CC(=O)c3ccccc3C2=O)cc1 | 1110 | 1100 | 7210 | 6.5 | 280 | 275 | 25.8 | 64 (≈ 247 µM) | >128
O=C1C=C(c2cc(F)cc(F)c2)C(=O)c2ccccc21 | 590 | 589 | 9670 | 16.4 | 240 | 240 | 40.3 | > 128 | 4
O=C1C=C(c2cnc3ccccc3c2)C(=O)c2ccccc21 | 450 | 447 | 5640 | 12.5 | 220 | 224 | 25.6 | 8 (≈ 28 µM) | 8
CS(=O)(=O)Nc1cccc(C2=CC(=O)c3ccccc3C2=O)c1 | 2560 | 2570 | 9250 | 3.6 | 200 | 200 | 46.3 | > 128 | 128
O=C1C=C(c2ccc(Cl)cc2)C(=O)c2ccccc21 | 2640 | 2630 | 8960 | 3.4 | 220 | 224 | 40.7 | 16 (≈ 59.5 µM) | >128
O=C1C=C(c2cnc(Cl)nc2)C(=O)c2ccccc21 | 470 | 468 | 1020 | 2.2 | 130 | 129 | 7.8 | 4 (≈ 14.8 µM) | 2
O=C1C=C(c2cc3ccccc3o2)C(=O)c2ccccc21 | 25000 | 25100 | 209000 | 8.4 | 1360 | 1350 | 154 | > 128 | 2
O=C1C=C(c2ccc(F)nc2)C(=O)c2ccccc21 | 110 | 115 | 2100 | 19.1 | 140 | 138 | 15 | 16 (≈ 63.2 µM) | >128
O=C1C=C(c2ccc(C(=O)N3CCCCC3)cc2)C(=O)c2ccccc21 | 2370 | 2340 | 9710 | 4.1 | 750 | 741 | 12.9 | 32 (≈ 92.6 µM) | 8
O=C1C=C(c2ccc(C(F)(F)F)cc2)C(=O)c2ccccc21 | 1080 | 1070 | 15100 | 14 | 80 | 75.9 | 189 | 128 (≈ 423 µM) | 4
CC(C)c1ccc(C2=CC(=O)c3ccccc3C2=O)cc1 | 2960 | 2950 | 20400 | 6.9 | 1450 | 1450 | 14.1 | 64 (≈ 232 µM) | 4
O=C1C=C(c2ccco2)C(=O)c2ccccc21 | 2070 | 2090 | 7440 | 3.6 | 130 | 129 | 57.2 | 128 (≈ 571 µM) | 2
O=C1C=C(c2cccc(OC(F)(F)F)c2)C(=O)c2ccccc21 | 890 | 891 | 23200 | 26.1 | 1800 | 1780 | 12.9 | 64 (≈ 201 µM) | 128
O=C1C=C(c2ccc(OC(F)(F)F)cc2)C(=O)c2ccccc21 | 3870 | 3890 | 16600 | 4.3 | 2360 | 2340 | 7 | 16 (≈ 50.3 µM) | 128
CC[n+]1c(-c2ccccc2)c2cc(N)ccc2c2ccc(N)cc21.[Br-] [HOMIDIUM BROMIDE] |  |  |  |  |  |  |  | 8 | 
NNC(=O)c1ccncc1 [ISONIAZID] |  |  |  |  |  |  |  | 4 (≈ 29.2 µM) | 
COc1cc([C@@H]2c3cc4c(cc3[C@H](O)[C@H]3COC(=O)[C@H]23)OCO4)cc(OC)c1OC [PODOFILOX] |  |  | 24 |  |  |  |  |  | 

Reference: ChEMBL document CHEMBL4765460, “Palladium-catalysed synthesis of arylnaphthoquinones as antiprotozoal and antimycobacterial agents” (Eur J Med Chem, 2020)
